Reference: patent publication US11566025B2, “Viral replication inhibitors” (Katholieke Universiteit Leuven, priority 2013, dated 2023)
Read-outs that look alike come from different tables or passages of the source.

Columns and labels:
Assay type in all cases: cell-based
[1] = tested on: DENV-2 NGC; test: Antiviral activity against DENV-2 in Vero-B cells (viral RNA load by RT-qPCR); conditions: Dengue virus, DENV2, 96 h; DENV-2, Vero-B cells, inhibition of viral RNA replication by 50%, 4 days
[2] = in vitro; conditions: African green monkey
Procedure: (§1) Potential cytotoxic effects of the compounds were evaluated in uninfected quiescent Vero-B or Vero-M cells. Cells were seeded at 5×10^4 cells/well in a 96-well plate in the presence of two-fold serial dilutions (ranging from 50 μg/mL-0.004 μg/mL) of compound and incubated for 4 to 7 days. Culture medium was discarded and 100 μL 3-(4,5-dimethylthiazol-2-yl)-5-(3-carboxymethoxyphenyl)-2-(4-sulfophenyl)-2H-tetrazolium/phenazinemethosuIfate (MTS/PMS; Promega, Leiden, The Netherlands) in PBS was added to each well. Following a 2-hour incubation period at 37° C., the optical density was determined at 498 nm. Cytotoxic activity was calculated using the following formula: % cell viability=100× (ODcompound/ODCC), where ODcompound and ODCC correspond to the optical density at 498 nm of the uninfected cell cultures treated with compound and that of uninfected, untreated cell cultures, respectively. The 50% cytotoxic concentration (i.e., the concentration that reduces the total cell number with 50%; CC50) was calculated using linear interpolation.

[3] = tested on: DENV-1 Djibouti strain D1/H/IMTSSA/98/606; test: Antiviral activity against DENV-1 in Vero-B cells (viral RNA load by RT-qPCR); conditions: Dengue virus, DENV1, 168 h; DENV-1, Vero-B cells, inhibition of viral RNA replication by 50%, 7 days
[4] = tested on: Vero-B cells; test: in vitro; conditions: African green monkey
Procedure: as §1

[5] = tested on: DENV-3 strain H87 prototype; test: Antiviral activity against DENV-3 in Vero-B cells (viral RNA load by RT-qPCR); conditions: Dengue virus
[6] = tested on: DENV-4 strain H241; test: Antiviral activity against DENV-4 in Vero-M cells (viral RNA load by RT-qPCR); conditions: Dengue virus, DENV4, 120 h; DENV-4, Vero-M cells, inhibition of viral RNA replication by 50%, 5 days
[7] = DENV3, 168 h, DENV-3, Vero-B cells, inhibition of viral RNA replication by 50%, 7 days, read-out: EC50

SMILES | EC50 [1] [µM] | CC50 ([2]; CC50 (μM)) [µM] | EC50 [3] [µM] | CC50 [4] [µM] | EC50 ([5]; DENV3, Vero B, 168 h) [µM] | EC50 [6] [µM] | CC50 [2] [µM] | EC50 [5, 7] [µM]
COc1cccc(NC(C(=O)c2nn(C)cc2-c2cccc(F)c2)c2ccccc2)c1 (stereo not drawn) [CPD-006] | 0.517 | > 120 |  |  |  |  |  | 
COc1cccc(NC(C(=O)c2cn(C)nc2-c2ccccc2)c2ccccc2)c1 (stereo not drawn) [CPD-026] |  | > 126 | 2.39 |  |  |  |  | 
COc1cccc(NC(C(=O)c2nn(C)cc2-c2ccccc2)c2cc3ccccn3n2)c1 (stereo not drawn) [CPD-013] | 0.343 | > 114 | 2.24 | > 114 |  |  |  | 
COc1cc(NC(C(=O)c2nn(C)cc2-c2ccccc2)c2ccc(C)cc2)cc(OC)c1 (stereo not drawn) [CPD-015] | 0.016 | > 113 | 0.132 | > 113 | 1.19 | 3.15 | > 113 | 
COc1cccc(NC(C(=O)c2nn(C)cc2-c2cncnc2)c2ccc(C)cc2)c1 (stereo not drawn) [CPD-009] | 3.29 | > 120 |  |  |  |  |  | 
COc1cccc(NC(C(=O)c2nn(C)cc2-c2cnn(C)c2)c2ccccc2)c1 (stereo not drawn) [CPD-007] | 15.5 | > 125 |  |  |  |  |  | 
COc1cccc(NC(C(=O)c2nn(C)cc2-c2ccccc2)c2ccc(F)cc2)c1 (stereo not drawn) [CPD-008] | 0.096 | > 120 | 2.64 | > 120 |  | 4.74 | > 120 | 1.01
COc1cncc(NC(C(=O)c2nn(C)cc2-c2ccccc2)c2ccc(OC)nc2)c1 (stereo not drawn) [CPD-012] | 71.3 | > 116 |  |  |  |  |  | 
COc1cccc(NC(C(=O)c2nn(C)cc2-c2ccc(C)nc2)c2ccccc2)c1 (stereo not drawn) [CPD-019] | 39.9 | 80 |  |  |  |  |  | 
COc1cc(NC(C(=O)N2CCOCC2c2ccccc2)c2ccc(C)cc2)cc(OC)c1 (stereo not drawn) [CPD-312] | 5.65 | > 112 |  |  |  |  |  | 
COc1cc(NC(C(=O)N2CCN(C)CC2c2ccccc2)c2ccc(C)cc2)cc(OC)c1 (stereo not drawn) [CPD-238] | 2.82 | > 99 |  |  |  |  |  | 
COc1cccc(NC(C(=O)c2nn(C)cc2-c2ccccc2F)c2ccccc2)c1 (stereo not drawn) [CPD-005] | 0.383 | > 120 |  |  |  |  |  | 
COc1cccc(NC(C(=O)c2n[nH]cc2-c2ccccc2)c2ccccc2)c1 (stereo not drawn) [CPD-023] | 0.443 |  | 0.939 |  |  |  |  | 
COc1cccc(NC(C(=O)c2nn(C)cc2-c2ccc3scnc3c2)c2ccc(OC)nc2)c1 (stereo not drawn) [CPD-016] | 1.87 | > 103 |  |  |  |  |  | 
COc1cccc(NC(C(=O)c2cscc2-c2ccccc2)c2ccccc2)c1 (stereo not drawn) [CPD-025] |  | > 125 | 3.63 |  |  |  |  | 
COc1cc(NC(C(=O)c2cn(C)c(Br)c2-c2ccccc2)c2ccccc2)cc(OC)c1 (stereo not drawn) [CPD-311] | 0.047 | > 99 | 0.016 | > 99 |  |  |  | 0.266

SMILES | EC50 [1] [µM] | CC50 ([2]; CC50 (μM)) [µM] | EC50 [3] [µM] | CC50 [4] [µM] | EC50 ([5]; DENV3, Vero B, 168 h) [µM] | EC50 [6] [µM] | CC50 [2] [µM] | EC50 [5, 7] [µM]
COc1cccc(NC(C(=O)c2nn(C)cc2-c2cccs2)c2ccc(OC)nc2)c1 (stereo not drawn) [CPD-018] | 1.27 | > 115 |  |  |  |  |  | 
COc1cccc(NC(C(=O)c2nn(C)cc2-c2ccc(F)cc2)c2ccccc2)c1 (stereo not drawn) [CPD-002] | 0.095 | > 120 | 2.09 | > 120 |  | 8.21 | > 120 | 0.794
COc1cccc(NC(C(=O)c2c[nH]cc2-c2ccccc2)c2ccccc2)c1 (stereo not drawn) [CPD-024] | 0.207 |  | 1.53 |  |  | 1.59 | 10 | 1.91
COc1cccc(NC(C(=O)c2nn(C)cc2-c2ccccc2)c2cccnc2)c1 (stereo not drawn) [CPD-003] | 1.67 | > 125 | 7.01 | 104 |  |  |  | 
COc1cccc(NC(C(=O)c2nn(C)cc2-c2ccncc2)c2ccc(C)cc2)c1 (stereo not drawn) [CPD-010] | 2.11 | > 121 |  |  |  |  |  | 
COc1cccc(NC(C(=O)c2nn(C)cc2-c2ccc(C#N)cc2)c2cc3ccccn3n2)c1 (stereo not drawn) [CPD-014] | 2.29 | > 108 |  |  |  |  |  | 
COc1cccc(NC(C(=O)c2nn(C)cc2-c2ccccc2)c2ccccc2)c1 (stereo not drawn) [CPD-001] | 0.323 | > 125 | 2.64 | > 126 |  |  |  | 2.12
COc1cc(NC(C(=O)N2CCS(=O)(=O)CC2c2ccccc2)c2ccc(C)cc2)cc(OC)c1 (stereo not drawn) [CPD-314] | 4.47 | > 101 |  |  |  |  |  | 
COc1cc(NC(C(=O)N2CCSCC2c2ccccc2)c2ccc(C)cc2)cc(OC)c1 (stereo not drawn) [CPD-313] | 0.951 | > 108 |  |  |  |  |  | 
COc1cc(NC(C(=O)N2CCCCCC2c2ccccc2)c2ccc(C)cc2)cc(OC)c1 (stereo not drawn) [CPD-242] | 1.16 | > 109 |  |  |  |  |  | 
COc1cccc(NC(C(=O)c2nn(C)cc2-c2ccc3c(c2)CCO3)c2ccc(OC)nc2)c1 (stereo not drawn) [CPD-017] | 1.64 | > 106 |  |  |  |  |  | 
COc1cccc(NC(C(=O)c2nn(C)cc2-c2ccccc2)c2cnc(OC)cn2)c1 (stereo not drawn) [CPD-011] | 0.745 | > 116 |  |  |  |  |  | 
COc1cc(NC(C(=O)N2CCCCC2c2ccccc2)c2ccc(C)cc2)cc(OC)c1 (stereo not drawn) [CPD-027] | 1.22 |  | 2.08 |  |  |  |  | 7.23
COc1cc(NC(C(=O)N2CCCC2c2ccccc2)c2ccc(C)cc2)cc(OC)c1 (stereo not drawn) [CPD-028] | 0.221 | > 116 | 17.2 | 70 |  | 6.67 | > 116 | 
COc1cccc(NC(C(=O)c2nn(C)cc2-c2ccccc2)c2cncc(F)c2)c1 (stereo not drawn) [CPD-004] | 1.55 | > 120 | 9.78 | > 120 |  |  |  | 
COc1cccc(NC(C(=O)c2nn(C)cc2-c2c(C)noc2C)c2ccc(C)cc2)c1 (stereo not drawn) [CPD-020] | 13.2 | > 116 |  |  |  |  |  | 
